Reference: patent publication US8629135B2, “Pharmaceutical compositions comprising RET inhibitors and methods for the treatment of cancer” (Queen's University at Kingston, priority 2008, dated 2014)
pEC50, pIC50: −log10 of the molar value. Several values for one entry are separate records, joined by “and”; a condition that tells them apart may be missing. Equal entries are not always repeated. Entries after “also recorded” stand apart in the source; their conditions may differ. Structures can show the parent of a compound that is named as a salt. Where two headings read alike, the source gives them in different places. Each block holds one molecule with its values, some of them ahead of it.

Key:
RET [1] = biological target: T1, RET (Homo sapiens (Human), UniProt P07949); test: Protein based RET kinase assay with purified recombinant GST-RET; format: biochemical
Target sequence in this assay (P07949 29-1114): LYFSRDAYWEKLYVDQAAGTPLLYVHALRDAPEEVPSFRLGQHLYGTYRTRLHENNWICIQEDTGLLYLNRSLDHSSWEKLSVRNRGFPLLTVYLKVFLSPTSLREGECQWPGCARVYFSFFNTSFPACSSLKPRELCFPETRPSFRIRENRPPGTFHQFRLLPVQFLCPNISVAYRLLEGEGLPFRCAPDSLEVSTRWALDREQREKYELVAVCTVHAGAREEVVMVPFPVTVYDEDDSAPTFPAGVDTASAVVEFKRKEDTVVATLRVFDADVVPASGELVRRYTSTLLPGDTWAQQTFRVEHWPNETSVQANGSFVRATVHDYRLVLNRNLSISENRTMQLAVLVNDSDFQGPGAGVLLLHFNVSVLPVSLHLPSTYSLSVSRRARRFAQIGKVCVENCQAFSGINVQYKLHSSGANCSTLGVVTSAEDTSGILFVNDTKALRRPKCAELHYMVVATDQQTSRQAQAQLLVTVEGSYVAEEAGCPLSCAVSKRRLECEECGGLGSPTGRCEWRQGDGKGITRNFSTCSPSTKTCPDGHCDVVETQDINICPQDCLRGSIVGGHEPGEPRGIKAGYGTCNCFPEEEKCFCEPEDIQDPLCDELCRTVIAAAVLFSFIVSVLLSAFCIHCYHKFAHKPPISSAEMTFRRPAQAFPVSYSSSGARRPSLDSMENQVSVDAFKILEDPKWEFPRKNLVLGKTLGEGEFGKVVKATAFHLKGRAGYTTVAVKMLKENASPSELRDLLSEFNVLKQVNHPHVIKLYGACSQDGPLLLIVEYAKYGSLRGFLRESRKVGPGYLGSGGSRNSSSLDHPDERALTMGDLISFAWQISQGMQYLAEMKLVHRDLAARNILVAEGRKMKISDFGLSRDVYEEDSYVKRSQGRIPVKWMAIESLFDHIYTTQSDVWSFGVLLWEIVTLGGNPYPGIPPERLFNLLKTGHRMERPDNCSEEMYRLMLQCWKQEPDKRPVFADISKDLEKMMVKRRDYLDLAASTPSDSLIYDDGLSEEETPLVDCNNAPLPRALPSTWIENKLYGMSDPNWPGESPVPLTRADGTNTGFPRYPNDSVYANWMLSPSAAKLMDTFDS

RET [2] = biological target: T1, RET; test: RET autophosphorylation (pY905 Western blot) in HEK293 cells stably expressing RET; format: cell-based
Target sequence in this assay (P07949 29-1114 limits assumed): as the sequence (P07949 29-1114) above

MiaPaca-2 tumours = test: Xenograft study, subcutaneous MiaPaca-2 tumours; format: in vivo; conditions: MiaPaca-2 xenograft, nude mice, intraperitoneal; SW-01 50 mg/kg, gemcitabine 120 mg/kg
[3] = test system: RET-expressing HEK293 cells
BxPc3 tumours = conditions: BxPc3 xenograft, nude mice, 50 mg/kg intraperitoneal every three days
[4] = test system: RET-mediated activation of ERK; conditions: increasing concentrations, HEK293 cells
ERK or AKT pathways = conditions: parental HEK 293 cells not expressing RET, increasing concentration
[5] = test system: MiaPaca-2 cells expressing RET; conditions: MiaPaca-2, GDNF + SW-01 (5 μM) relative to GDNF alone
TT cells [6] = test system: TT cells
RET V804M mutant = RET V804M mutant (Homo sapiens (Human), UniProt P07949, V804M); conditions: HEK293 cells, 2 h
Sequence of RET V804M mutant (P07949 29-1114 V804M): as the sequence (P07949 29-1114) above, with V776M counted along it

[7] = test system: HEK293 cells stably expressing RET
TT cells [8] = conditions: 24 hours, 10× magnification
RET [9] = biological target: T1, RET; set-up: key to the marks not given beside the values; conditions: RET phosphorylation levels
Target sequence in this assay (P07949 29-1114): as the sequence (P07949 29-1114) above

MCF7 cells = conditions: presence of GDNF
RET M918T mutant = RET M918T mutant (Homo sapiens (Human), UniProt P07949, M918T); conditions: HEK293 cells, 2 h
Sequence of RET M918T mutant (P07949 29-1114 M918T): as the sequence (P07949 29-1114) above, with M890T counted along it

MiaPaca-2 cells = conditions: presence of GDNF
[10] = purified protein assay, read-out: IC50
[11] = varying concentrations, 2 hours, HEK293 cells expressing RET
[12] = cell based assay, read-out: EC50

Structure (SMILES): CN(C)CCC=C1c2ccccc2CCc2ccccc21 [SW-05, Amitriptyline]
pIC50 (RET [1]; [10]): 6.00
pEC50 (RET [2]): 5.30
RET autophosphorylation (RET [2]; [11]): inhibited RET activity; also recorded: decreased RET activity

Structure (SMILES): C[N+](C)([O-])CCC=C1c2ccccc2CCc2ccccc21.Cl [SW-03, 3-(10,11-Dihydro-5H-dibenzo[a,d]cyclohepten-5-ylidene)-N,N-dimethyl-1-propanamine N-oxide hydrochloride]
pIC50 (RET [1]; [10]): 5.00
pEC50 (RET [2]): < 4.70
RET autophosphorylation (RET [2]; [11]): did not affect RET autophosphorylation

Structure (SMILES): CN(C)CCNC1c2ccccc2-c2ccccc21 [SW-09, N′-Fluoren-9-yl-N,N-dimethyl-ethylenediamine dihydrochloride]
pIC50 (RET [1]; [10]): < 4.70
pEC50 (RET [2]; [12]): < 4.70

pIC50 (RET [1]; [10]): 5.60
pEC50 (RET [2]; [12]): 5.15
Structure (SMILES): CN(C)CCOC1c2ccccc2C=Cc2ccccc21 [SW-13, [2-(5H-Dibenzo[a,d]cyclohepten-5-yloxy)-ethyl]-dimethyl-amine]

Structure (SMILES): CNCCC=C1c2ccccc2C=Cc2ccccc21 [SW-15, Norcyclo- benzaprine (NCBA)]
pEC50 (RET [2]): 6.00
RET autophosphorylation (RET [2]; [11]): inhibited RET

Structure (SMILES): CNCCC=C1c2ccccc2CCc2ccccc21 [SW-04, Nortriptyline]
pIC50 (RET [1]; [10]): 5.82
pEC50 (RET [2]; EC50, cell based assay): 5.00
RET autophosphorylation (RET [2]; [11]): did not affect RET autophosphorylation

Structure (SMILES): Nc1ccn([C@@H]2O[C@H](CO)[C@@H](O)C2(F)F)c(=O)n1 [gemcitabine, reference compound]
tumour growth (MiaPaca-2 tumours): no statistical difference between SW-01 and gemcitabine treatment groups

Structure (SMILES): CNCCC=C1c2ccccc2CCc2ccccc21.Cl [SW-02, Nortriptyline Hydrochloride]
pIC50 (RET [1]; purified protein assay, Hydrochloride, read-out: IC50): 5.30
pEC50 (RET [2]; EC50, cell based assay): < 4.70
RET autophosphorylation (RET [2]; varying concentrations, 2 hours, HEK293 cells expressing RET, Hydrochloride): inhibited RET activity; also recorded: decreased RET activity

pIC50 (RET [1]; [10]): < 4.70
pEC50 (RET [2]; [12]): < 4.70
Structure (SMILES): CN(C)CCC=C1c2ccccc2C(C)(C)c2ccccc21 [SW-14, Melitracin]

pIC50 (RET [1]; [10]): < 4.70
pEC50 (RET [2]; [12]): < 4.70
Structure (SMILES): NCCCC1(CCCN)c2ccccc2-c2ccccc21 [SW-10, 9,9-Bis(3-aminopropyl)-fluorine]

Structure (SMILES): CCN(CC)CCCOC(=O)CC1c2ccccc2C=Cc2ccccc21 [SW-12, (5H-Dibenzo[a,d]cyclohepten-5-yl)-acetic acid 3-diethylamino-propyl ester]
pIC50 (RET [1]; [10]): 5.40
pEC50 (RET [2]): < 4.70

pIC50 (RET [1]; [10]): < 5.00
pEC50 (RET [2]; [12]): < 4.70
Structure (SMILES): CN(C)CCCC1(O)c2ccccc2C=Cc2ccccc21 [SW-11, 5-(3-Dimethylamino-propyl)-5H-dibenzo[a,d]cyclohepten-5-ol]

pIC50 (RET [1]; [10]): < 4.70
pEC50 (RET [2]; [12]): < 4.70
Structure (SMILES): CN(CCCN1c2ccccc2CCc2ccccc21)CC(=O)c1ccc(Cl)cc1 [SW-06, Lofepramine]

Structure (SMILES): CN(C)CCC=C1c2ccccc2C=Cc2ccccc21.Cl [SW-01, Cyclobenzaprine Hydrochloride]
RET-mediated colony formation in soft agar [3]: inhibits RET-mediated colony formation
pIC50 (RET [1]; kinase assays using purified recombinant RET proteins, Hydrochloride, read-out: IC50 for RET): 6.52 and 6.51
pIC50 (RET [1]; [10]): 6.52
RET autokinase activity (RET [1]; purified recombinant RET, pY905 Western blot): significantly reduced RET autokinase activity
tumour growth (BxPc3 tumours): caused slowed and reduced tumour growth
amount of pERK [4]: significantly reduced
effect on ERK or AKT pathways (ERK or AKT pathways): did not affect ERK or AKT pathways
cell proliferation (MTT) (BxPc3): caused decreased cell proliferation
cell migration (wound closure) [5]: cell migration was inhibited
apoptosis (TT cells [6]): led to apoptosis
RET phosphorylation (pRET/RET) (RET V804M mutant): inhibited by SW-01 in a concentration dependent fashion
apoptosis (NCIH69 cells): caused apoptosis in NCIH69 cells in a dose-dependent fashion
RET-mediated cell proliferation (MTT) [7]: reduces RET-mediated cell proliferation
cell morphology (TT cells [8]): exhibited induced morphological changes
RET autophosphorylation (RET [2]; 10 μM for 2 hours, HEK293 cells expressing activated wildtype RET, Hydrochloride): significantly inhibited RET autophosphorylation
RET autophosphorylation (RET [2]; 10 μM for 2 hours, HEK293 cells expressing activated wildtype RET, listed as NSC78206, Hydrochloride): significant RET inhibition
pEC50 (RET [2]; EC50, cell based assay): 6.00
expression levels of RET (RET [2]; pan RET antibody, HEK293 cells): did not affect expression levels of RET
RET autophosphorylation (RET [2]; [11]): blocked or dramatically reduced
cell proliferation (MTT) (MiaPaca-2): caused decreased cell proliferation
tumour growth (MiaPaca-2 tumours): no statistical difference between SW-01 and gemcitabine treatment groups
SW-01 Inhibition (10 μM) (RET [9]): ++
apoptosis (MCF7 cells): caused apoptosis in MCF7 cells in a dose-dependent fashion
RET phosphorylation (pRET/RET) (RET M918T mutant): inhibited by SW-01 in a concentration dependent fashion
apoptosis (MiaPaca-2 cells): caused dose-dependent apoptosis

Structure (SMILES): NCC1c2ccccc2CCc2ccccc21 [SW-08, 10,11-Dihydro-5H-dibenzo[a,d]cycloheptene-5-methanamine]
pIC50 (RET [1]; [10]): 5.30
pEC50 (RET [2]): 4.70
